Experimental data reported in patent US5208242A, “5-substituted-4-phenyl-5H-imidazo[4,5-c]pyridine derivatives” (G. D. Searle & Co., priority 1992, dated 1993).

Biological target: T1, PAF receptor (Homo sapiens, UniProt P25105)
T1 construct: tissue Lifesource, Inc. (Glenview, Ill.); host or cells: human packed platelets (washed, freeze-thawed membrane preparation)
Experiment: Inhibition of the Specific Binding of [^3 H]PAF to Human Platelet Membrane Preparation
Settings: 0.75 nM [^3 H]PAF, 30 minutes at 24° C., pH 7.4
Procedure: Inhibition of the Specific Binding of [^3 H]PAF to Human Platelet Membrane Preparation.
Human packed platelets were obtained from Lifesource, Inc. (Glenview, Ill.) and washed 3 times with 10 mM Trizma pH 7.0, 2 mM EDTA (dipotassium salt), 150 mM KCl and then once with 10 mM Trizma 7.4, 20 mM CaCl2. The platelets were broken by freezing in a dry ice-ethanol bath, followed by thawing in 24° C. water baths. The preparation was centrifugation (40,000×g, 20 minutes, 4' C) and the pellet resuspended in 10 mM Trizma 7.4, 20 mM CaCl2, 5 mg/ml human albumin. Protein concentration in the platelet membrane preparation was determined by the Lowry method [O.H. Lowry et al. J. Biological Chemistry, 193, 265-275 (1951)]. Aliquots of the membrane preparation were stored at -70° C. Each preparation was characterized for PAF receptor number and dissociation constant (Kd). In binding assays 5 μl of test compound, solubilized in DMSO, was added to polypropylene tubes along with 0.75 nM [^ 3 H]PAF and 200 mcl [0.075 nM] of membranes and 95 μl 10 mM Trizma 7.4, […], 5 mg/ml human albumin. Tubes were incubated for 30 minutes at 24° C. […] Filters were prepared and counted for a scintillation counter. […] The IC50 values were determined by the Allfit program using percent displacement data. […]

T1 sequence (P25105 whole entry): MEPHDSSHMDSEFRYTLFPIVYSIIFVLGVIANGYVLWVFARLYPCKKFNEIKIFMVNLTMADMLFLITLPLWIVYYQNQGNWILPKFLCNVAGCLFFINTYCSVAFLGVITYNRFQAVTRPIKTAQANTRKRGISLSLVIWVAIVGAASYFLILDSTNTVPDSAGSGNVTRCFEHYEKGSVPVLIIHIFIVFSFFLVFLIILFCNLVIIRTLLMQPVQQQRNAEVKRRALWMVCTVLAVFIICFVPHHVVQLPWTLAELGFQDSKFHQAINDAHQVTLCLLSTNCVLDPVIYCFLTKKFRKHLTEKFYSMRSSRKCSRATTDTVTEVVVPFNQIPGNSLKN

COc1cc(C(=O)N(C(C)C)C2CCCCC2)ccc1Cn1ccc2ncnc-2c1-c1ccccc1 [Compound 9, N-cyclohexyl-3-methoxy-N-(1-methylethyl)-4-[(4-phenyl-5H-imidazo[4,5-c]pyridin-5-yl)methyl]benzamide]
IC50: 1040 nM
